According to ChEMBL document CHEMBL1146098, “Synthesis and characterization of 3-arylquinazolinone and 3-arylquinazolinethione derivatives as selective estrogen receptor beta modulators” (J Med Chem, 2006):

Legend:
Estrogen receptor beta [1] = target: T1, Estrogen receptor beta (Homo sapiens, UniProt Q92731)
Description: Inhibition of ER beta-mediated transactivation of ERE in HeLa cell luciferase assay

Estrogen receptor beta [2] = target: T1, Estrogen receptor beta; remark: listed apart in the source
Estrogen receptor = target: T2, Estrogen receptor (Homo sapiens, UniProt P03372)
T2 sequence (P03372 whole entry): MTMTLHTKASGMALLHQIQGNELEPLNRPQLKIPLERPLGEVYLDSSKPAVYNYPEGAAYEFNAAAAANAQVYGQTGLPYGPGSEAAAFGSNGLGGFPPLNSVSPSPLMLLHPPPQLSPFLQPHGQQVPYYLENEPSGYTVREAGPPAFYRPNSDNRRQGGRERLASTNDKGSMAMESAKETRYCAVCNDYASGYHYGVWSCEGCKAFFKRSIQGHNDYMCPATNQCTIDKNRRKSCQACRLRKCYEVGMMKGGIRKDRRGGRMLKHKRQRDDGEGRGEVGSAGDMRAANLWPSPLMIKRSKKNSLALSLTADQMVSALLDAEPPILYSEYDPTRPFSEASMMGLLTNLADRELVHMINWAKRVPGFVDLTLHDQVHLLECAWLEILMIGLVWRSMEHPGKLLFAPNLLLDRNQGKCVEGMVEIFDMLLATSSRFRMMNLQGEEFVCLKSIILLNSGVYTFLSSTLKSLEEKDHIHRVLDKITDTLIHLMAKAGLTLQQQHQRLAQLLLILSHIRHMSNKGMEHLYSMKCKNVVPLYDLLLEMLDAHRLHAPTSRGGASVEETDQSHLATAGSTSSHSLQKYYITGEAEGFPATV
Description: Displacement of [3H]estrone from ER alpha

T1 sequence (Q92731 whole entry): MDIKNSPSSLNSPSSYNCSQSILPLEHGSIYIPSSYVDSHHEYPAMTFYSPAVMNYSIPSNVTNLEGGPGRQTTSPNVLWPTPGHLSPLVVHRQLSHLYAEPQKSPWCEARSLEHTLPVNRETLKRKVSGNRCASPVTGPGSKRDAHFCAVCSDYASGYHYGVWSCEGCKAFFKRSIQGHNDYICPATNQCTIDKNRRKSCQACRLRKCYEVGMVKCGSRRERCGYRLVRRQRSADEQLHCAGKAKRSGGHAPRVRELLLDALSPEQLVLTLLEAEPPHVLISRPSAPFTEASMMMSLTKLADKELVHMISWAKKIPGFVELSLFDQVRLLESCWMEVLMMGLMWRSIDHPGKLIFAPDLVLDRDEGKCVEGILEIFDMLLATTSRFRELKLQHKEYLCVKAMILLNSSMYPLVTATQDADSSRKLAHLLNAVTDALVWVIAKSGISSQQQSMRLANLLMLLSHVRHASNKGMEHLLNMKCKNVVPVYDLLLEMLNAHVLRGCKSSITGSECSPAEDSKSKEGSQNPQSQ

| Structure (SMILES) | EC50 (Estrogen receptor beta [1]) | IC50 (Estrogen receptor beta [2]) | IC50 (Estrogen receptor) |
| --- | --- | --- | --- |
| COc1cc(O)cc2ncn(-c3ccc(O)cc3)c(=O)c12 | 8.51 µM |  |  |
| CCOc1cc(O)cc2ncn(-c3ccc(O)cc3)c(=O)c12 |  | 44.3 µM |  |
| COc1cc(O)c2c(=O)n(-c3ccc(O)cc3)c(=S)[nH]c2c1 | 3.84 µM | 72.8 µM |  |
| O=c1c2c(CO)cc(O)cc2ncn1-c1ccc(O)cc1 | 4.46 µM | 0.024 µM | 0.121 µM |
| COc1cc(O)c2c(=O)n(-c3ccc(O)cc3)cnc2c1 | 8.51 µM | 9.53 µM | 26 µM |
| O=c1c2c(O)cc(O)c(I)c2ncn1-c1ccc(O)cc1 | 0.593 µM | 4.08 µM |  |
| O=c1c2c(O)cc(O)cc2ncn1-c1ccc(O)c(F)c1 | 0.117 µM | 0.65 µM | 44.2 µM |
| C=C(C)c1cc(O)cc2ncn(-c3ccc(O)cc3)c(=O)c12 | 0.729 µM | 2.3 µM | 44 µM |
| CCc1nc2cc(O)cc(O)c2c(=O)n1-c1ccc(O)cc1 | 1.26 µM | 5.75 µM | 19.4 µM |
| Cc1cc(O)cc2ncn(-c3ccc(O)cc3)c(=O)c12 | 0.136 µM | 0.317 µM | 9.63 µM |
| N#Cc1cc(O)cc2ncn(-c3ccc(O)cc3)c(=O)c12 | 7.58 µM | 73.7 µM |  |
| CCc1cc(O)cc2ncn(-c3ccc(O)cc3)c(=O)c12 | 0.062 µM | 0.265 µM | 13.2 µM |
| CCCc1c(O)cc2ncn(-c3ccc(O)cc3)c(=O)c2c1O |  | 7.3 µM | 10.6 µM |
| CC(C)c1nc2cc(O)cc(O)c2c(=O)n1-c1ccc(O)cc1 |  | 48.1 µM | 70.4 µM |
| Oc1ccc(-c2coc3cc(O)cc(O)c3c2=S)cc1 [THIOGENISTEIN] | 0.014 µM | 1.34 µM | 55.9 µM |
| O=c1c2c(O)cc(O)cc2ncn1-c1ccc(O)c(Cl)c1 | 1.18 µM | 7.21 µM | 55 µM |
| O=c1c2c(O)c(I)c(O)cc2ncn1-c1ccc(O)cc1 | 1.64 µM | 3.97 µM |  |
| O=c1c2c(O)c(I)c(O)c(I)c2ncn1-c1ccc(O)cc1 | 1.97 µM | 12.3 µM |  |
| Cc1cc(O)ccc1-n1cnc2cc(O)cc(O)c2c1=O | 0.111 µM | 0.422 µM | 4.38 µM |
| O=c1c2c(O)cc(O)cc2ncn1-c1ccccc1 | 1.72 µM | 18.5 µM | 75.6 µM |
| COC(=O)c1cc(OC(C)=O)cc2ncn(-c3ccc(OC(C)=O)cc3)c(=S)c12 | 11.3 µM |  |  |
| Oc1cc(O)c2c(=S)n(-c3ccc(O)c(F)c3)cnc2c1 | 0.02 µM | 0.102 µM | 3.08 µM |
| O=c1c2c(O)cc(O)cc2ncn1-c1ccc(O)cc1F | 0.19 µM | 0.256 µM | 7.48 µM |
| CCc1cc(O)cc2ncn(-c3ccc(O)cc3)c(=S)c12 | 0.053 µM | 0.156 µM | 2.26 µM |

| Structure (SMILES) | EC50 (Estrogen receptor beta [1]) | IC50 (Estrogen receptor beta [2]) | IC50 (Estrogen receptor) |
| --- | --- | --- | --- |
| Cc1nc2cc(O)cc(O)c2c(=O)n1-c1ccc(O)cc1 | 1.58 µM | 11.4 µM | 33.2 µM |
| COC(=O)c1cc(O)cc2ncn(-c3ccc(O)cc3)c(=O)c12 | 9.41 µM | 9.54 µM | 81.3 µM |
| C=Cc1cc(O)cc2ncn(-c3ccc(O)cc3)c(=O)c12 | 0.75 µM | 17 µM |  |
| Cc1c(O)cc(O)c2c(=O)n(-c3ccc(O)cc3)cnc12 | 8.87 µM | 1.27 µM | 15.3 µM |
| CCCCc1nc2cc(O)cc(O)c2c(=O)n1-c1ccc(O)cc1 |  | 0.249 µM | 0.178 µM |
| O=c1c2ccc(O)cc2nc(-c2ccc(O)cc2)n1-c1ccc(O)cc1 |  | 441 µM | 48.5 µM |
| Cc1cc(-n2cnc3cc(O)cc(O)c3c2=S)ccc1O | 0.16 µM | 0.658 µM | 2.85 µM |
| Nc1cc(O)cc2ncn(-c3ccc(O)cc3)c(=O)c12 | 2.06 µM | 8.24 µM | 15.5 µM |
| CCCc1nc2cc(O)cc(O)c2c(=O)n1-c1ccc(O)cc1 |  | 3.22 µM | 5.36 µM |
| Oc1ccc(-n2cnc3cc(O)cc(O)c3c2=S)nc1 | 0.173 µM | 0.515 µM | 27.6 µM |
| O=c1c2ccc(O)cc2ncn1-c1ccc(O)cc1 | 0.961 µM | 8.61 µM | 53.6 µM |
| Cc1cc(-n2cnc3cc(O)cc(O)c3c2=O)ccc1O | 1.25 µM | 7.49 µM | 34.6 µM |
| O=c1c2c(O)cc(O)cc2nc(Cl)n1-c1ccc(O)cc1 | 8.78 µM | 13.4 µM |  |
| O=c1c2c(O)cc(O)cc2ncn1-c1ccc(O)nc1 | 9.76 µM | 51.7 µM | 66.9 µM |
| Cc1cc(O)cc2ncn(-c3ccc(O)cc3)c(=S)c12 | 0.222 µM | 0.079 µM | 1.75 µM |
| O=c1[nH]c2cc(O)cc(O)c2c(=O)n1-c1ccc(O)cc1 | 1.31 µM | 9.38 µM | 70.3 µM |
| O=c1c2c(O)cc(O)cc2ncn1-c1cccc(O)c1 | 0.904 µM | 3.84 µM | 43.8 µM |
| O=c1c2c(O)cc(O)cc2ncn1-c1ccc(O)cc1Cl | 0.251 µM | 0.263 µM | 6.25 µM |
| O=c1c2c(O)cc(O)cc2[nH]c(=S)n1-c1ccc(O)cc1 | 1.99 µM | 6.99 µM | 11.1 µM |
| O=c1c2c(OS(=O)(=O)C(F)(F)F)cc(O)cc2ncn1-c1ccc(O)cc1 | 3.8 µM | 12 µM |  |
| O=c1c2c(O)cc(O)cc2ncn1-c1ccc(O)cc1 | 0.076 µM | 0.179 µM | 11.1 µM |
| O=c1c2c(O)cc(O)cc2ncn1-c1ccc(O)cn1 | 0.358 µM | 3.53 µM | 98 µM |
| O=c1c2c(-c3ccccc3)cc(O)cc2ncn1-c1ccc(O)cc1 | 11.7 µM | 30.7 µM | 102 µM |
| Oc1ccc(-n2cnc3cc(O)cc(O)c3c2=S)cc1 | 0.013 µM | 0.047 µM | 2.64 µM |
